ChEMBL document CHEMBL4842362, “From virtual screening hits targeting a cryptic pocket in BACE-1 to a nontoxic brain permeable multitarget anti-Alzheimer lead with disease-modifying and cognition-enhancing effects” (Eur J Med Chem, 2021)
Converted amounts (≈) assume the structure as drawn. “And” between values parts separate entries of the source, which are not always exact repeats. Identical values can stand only once. The source made the active and inactive calls. No cut-off for these calls is given here.

Experiments:
HT-22 [1] = experiment: Neuroprotective activity against glutamate induced neuronal death in mouse HT-22 cells assessed as increase in cell viability at 25 uM by MTT assay; format: functional, cell-based
[2] = molecular target: Microtubule-associated protein tau (Homo sapiens) (UniProt P10636); experiment: Inhibition of tau aggregation (unknown origin) in Escherichia coli BL21 (DE3) at 10 uM incubated overnight by thioflavin S based fluorescence analysis relative to control
Microtubule-associated protein tau (Homo sapiens), sequence (P10636 whole entry): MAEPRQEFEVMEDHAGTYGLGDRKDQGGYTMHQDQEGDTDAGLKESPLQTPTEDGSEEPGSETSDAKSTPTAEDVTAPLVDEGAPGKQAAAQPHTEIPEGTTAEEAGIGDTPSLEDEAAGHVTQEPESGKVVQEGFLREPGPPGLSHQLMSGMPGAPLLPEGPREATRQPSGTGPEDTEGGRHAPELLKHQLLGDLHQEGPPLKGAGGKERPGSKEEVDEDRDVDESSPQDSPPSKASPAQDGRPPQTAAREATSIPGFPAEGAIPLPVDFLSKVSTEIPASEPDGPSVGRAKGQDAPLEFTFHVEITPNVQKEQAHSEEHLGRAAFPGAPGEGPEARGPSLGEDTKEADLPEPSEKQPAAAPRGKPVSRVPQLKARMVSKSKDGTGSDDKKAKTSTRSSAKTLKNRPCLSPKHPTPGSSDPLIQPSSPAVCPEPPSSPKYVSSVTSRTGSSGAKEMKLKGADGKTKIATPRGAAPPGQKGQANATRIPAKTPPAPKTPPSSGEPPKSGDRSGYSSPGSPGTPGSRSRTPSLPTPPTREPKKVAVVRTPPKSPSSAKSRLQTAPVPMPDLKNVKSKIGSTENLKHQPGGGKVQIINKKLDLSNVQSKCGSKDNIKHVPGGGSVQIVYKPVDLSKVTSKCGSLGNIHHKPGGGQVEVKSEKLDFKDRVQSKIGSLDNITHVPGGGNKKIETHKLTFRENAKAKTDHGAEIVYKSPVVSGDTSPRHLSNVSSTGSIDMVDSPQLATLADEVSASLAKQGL

Acetylcholinesterase [3] = molecular target: T1, Acetylcholinesterase (Homo sapiens, UniProt P22303); experiment: Potency index, ratio of rhein-huprine hybrid IC50 to test compound IC50 for inhibition of human recombinant AChE using acetylthiocholine iodide as a substrate preincubated for 20 mins followed by substrate addition by spectrophotometric analysis
T1 sequence (P22303 whole entry): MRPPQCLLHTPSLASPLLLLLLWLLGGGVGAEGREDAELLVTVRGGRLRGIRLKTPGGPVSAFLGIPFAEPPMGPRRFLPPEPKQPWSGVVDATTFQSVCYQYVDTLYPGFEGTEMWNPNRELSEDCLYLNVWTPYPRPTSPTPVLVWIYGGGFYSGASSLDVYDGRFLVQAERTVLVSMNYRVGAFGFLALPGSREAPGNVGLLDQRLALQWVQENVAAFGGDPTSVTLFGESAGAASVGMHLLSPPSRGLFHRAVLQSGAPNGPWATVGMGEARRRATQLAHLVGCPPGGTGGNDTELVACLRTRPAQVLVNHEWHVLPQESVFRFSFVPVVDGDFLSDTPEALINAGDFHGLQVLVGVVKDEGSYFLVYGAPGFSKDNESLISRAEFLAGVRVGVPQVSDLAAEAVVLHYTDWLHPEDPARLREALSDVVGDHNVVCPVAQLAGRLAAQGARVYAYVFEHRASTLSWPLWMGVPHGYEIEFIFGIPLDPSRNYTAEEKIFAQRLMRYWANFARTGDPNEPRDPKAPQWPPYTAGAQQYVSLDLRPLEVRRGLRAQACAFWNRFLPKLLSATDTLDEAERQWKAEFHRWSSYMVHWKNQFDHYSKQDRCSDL

Cholinesterase [4] = molecular target: T2, Cholinesterase (Homo sapiens, UniProt P06276); experiment: Potency index, ratio of rhein-huprine hybrid IC50 to test compound IC50 for inhibition of human serum BChE using butyrylthiocholine iodide as a substrate preincubated for 20 mins followed by substrate addition by spectrophotometric analysis; format: cell-free
T2 sequence (P06276 whole entry): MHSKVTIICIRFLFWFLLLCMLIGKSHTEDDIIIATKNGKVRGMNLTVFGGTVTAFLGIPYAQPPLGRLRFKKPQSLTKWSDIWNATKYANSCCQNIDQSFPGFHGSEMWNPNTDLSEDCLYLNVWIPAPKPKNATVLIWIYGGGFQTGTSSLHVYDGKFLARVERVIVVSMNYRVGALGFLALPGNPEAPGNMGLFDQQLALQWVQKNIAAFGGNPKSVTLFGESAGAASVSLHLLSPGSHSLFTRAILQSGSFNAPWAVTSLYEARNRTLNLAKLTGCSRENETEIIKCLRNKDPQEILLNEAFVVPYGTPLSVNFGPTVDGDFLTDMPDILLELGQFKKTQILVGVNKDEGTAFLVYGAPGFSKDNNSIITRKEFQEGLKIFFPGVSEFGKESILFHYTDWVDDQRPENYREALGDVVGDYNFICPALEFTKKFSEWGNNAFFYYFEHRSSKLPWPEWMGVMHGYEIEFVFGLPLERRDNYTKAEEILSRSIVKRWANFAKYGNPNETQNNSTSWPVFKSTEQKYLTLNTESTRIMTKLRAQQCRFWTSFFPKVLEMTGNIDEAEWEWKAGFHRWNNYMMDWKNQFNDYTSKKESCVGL

[5] = Permeability of the compound in PBS/EtOH by PAMPA-BBB assay; format: ADME; conditions: read-out: permeability
Acetylcholinesterase [6] = molecular target: T1, Acetylcholinesterase; experiment: Potency index, ratio of donepezil IC50 to test compound IC50 for inhibition of human recombinant AChE using acetylthiocholine iodide as a substrate preincubated for 20 mins followed by substrate addition by spectrophotometric analysis
Acetylcholinesterase [7] = molecular target: T1, Acetylcholinesterase
Description: Inhibition of human recombinant AChE using acetylthiocholine iodide as a substrate preincubated for 20 mins followed by substrate addition by spectrophotometric analysis

[8] = molecular target: Amyloid-beta precursor protein (Homo sapiens) (UniProt P05067); experiment: Inhibition of amyloid beta (1 to 42) (unknown origin) aggregation in Escherichia coli BL21 (DE3) at 10 uM incubated overnight by thioflavin S based fluorescence analysis relative to control
Amyloid-beta precursor protein (Homo sapiens), sequence (P05067 whole entry): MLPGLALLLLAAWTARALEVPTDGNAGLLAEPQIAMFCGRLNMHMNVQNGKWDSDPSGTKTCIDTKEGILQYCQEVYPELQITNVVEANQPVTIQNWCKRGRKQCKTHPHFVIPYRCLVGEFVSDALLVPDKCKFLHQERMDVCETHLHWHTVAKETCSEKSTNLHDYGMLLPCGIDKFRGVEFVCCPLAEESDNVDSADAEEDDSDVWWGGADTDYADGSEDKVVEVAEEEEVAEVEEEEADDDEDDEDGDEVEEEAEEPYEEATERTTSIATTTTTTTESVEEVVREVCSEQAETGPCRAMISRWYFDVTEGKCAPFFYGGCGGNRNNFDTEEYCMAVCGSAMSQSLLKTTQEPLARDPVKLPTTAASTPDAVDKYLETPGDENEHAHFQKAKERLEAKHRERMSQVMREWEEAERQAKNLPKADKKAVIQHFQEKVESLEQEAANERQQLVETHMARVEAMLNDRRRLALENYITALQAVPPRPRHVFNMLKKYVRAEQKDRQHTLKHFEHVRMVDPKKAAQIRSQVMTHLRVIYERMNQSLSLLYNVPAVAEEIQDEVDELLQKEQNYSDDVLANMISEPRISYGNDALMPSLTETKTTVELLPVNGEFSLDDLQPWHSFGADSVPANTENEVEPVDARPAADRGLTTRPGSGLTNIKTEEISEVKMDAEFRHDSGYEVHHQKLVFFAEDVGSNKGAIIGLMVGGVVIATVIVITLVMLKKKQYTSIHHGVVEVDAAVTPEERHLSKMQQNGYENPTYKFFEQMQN

Cholinesterase [9] = molecular target: T2, Cholinesterase; experiment: Potency index, ratio of donepezil IC50 to test compound IC50 for inhibition of human serum BChE using butyrylthiocholine iodide as a substrate preincubated for 20 mins followed by substrate addition by spectrophotometric analysis; format: cell-free
[10] = Acute toxicity in zebra fish embryos assessed as lethality measured every 24 hrs for 72 hrs; set-up: species or system Danio rerio; conditions: zebrafish
Beta-secretase 1 [11] = molecular target: T3, Beta-secretase 1 (Homo sapiens, UniProt P56817); experiment: Inhibition of human recombinant BACE-1 expressed in Escherichia coli at 10 uM using panvera peptide as a substrate incubated for 1 hr by fluorescence analysis relative to control
T3 sequence (P56817 whole entry): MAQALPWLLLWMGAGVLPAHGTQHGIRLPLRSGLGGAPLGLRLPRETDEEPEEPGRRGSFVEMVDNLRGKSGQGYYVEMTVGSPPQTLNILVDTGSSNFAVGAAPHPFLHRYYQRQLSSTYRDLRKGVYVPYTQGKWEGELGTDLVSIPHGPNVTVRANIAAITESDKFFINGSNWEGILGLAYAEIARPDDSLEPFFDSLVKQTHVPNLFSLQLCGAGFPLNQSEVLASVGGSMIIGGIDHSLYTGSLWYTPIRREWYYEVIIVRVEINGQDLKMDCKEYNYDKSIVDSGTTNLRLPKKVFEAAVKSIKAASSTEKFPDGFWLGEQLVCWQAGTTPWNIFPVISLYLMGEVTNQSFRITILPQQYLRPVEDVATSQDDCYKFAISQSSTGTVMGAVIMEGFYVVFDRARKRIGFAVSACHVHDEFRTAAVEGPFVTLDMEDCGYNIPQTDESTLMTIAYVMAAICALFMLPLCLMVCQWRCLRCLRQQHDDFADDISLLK

Cholinesterase [12] = molecular target: T2, Cholinesterase; experiment: Potency index, ratio of huprine-Y IC50 to test compound IC50 for inhibition of human serum BChE using butyrylthiocholine iodide as a substrate preincubated for 20 mins followed by substrate addition by spectrophotometric analysis; format: cell-free
[13] = Kinetic solubility of the compound in DMSO/PBS buffer measured after 2 hrs by nephalometric analysis; format: physicochemical; conditions: for solubility kinetic at 2 h: DMSO/PBS buffer, read-out: Kinetic_solubility
[14] = Acute toxicity in zebra fish embryos assessed as lethality at 12.5 to 100 uM measured every 24 hrs for 72 hrs relative to control; set-up: species or system Danio rerio; conditions: zebrafish, dose 12.5-100 µM, read-out: Activity
[15] = Antioxidant activity assessed as free radical scavenging activity at 500 uM incubated for 30 mins under dark condition by DPPH assay; format: functional
Cholinesterase [16] = molecular target: T2, Cholinesterase
Description: Inhibition of human serum BChE using butyrylthiocholine iodide as a substrate preincubated for 20 mins followed by substrate addition by spectrophotometric analysis

[17] = Neurotoxicity in mouse HT-22 cells assessed as decrease in cell viability at up to 25 uM by MTT assay; format: cell-based
Beta-secretase 1 [18] = molecular target: T3, Beta-secretase 1; experiment: Inhibition of human recombinant BACE-1 expressed in Escherichia coli using panvera peptide as a substrate incubated for 1 hr by fluorescence analysis
[19] = Neurotoxicity in mouse HT-22 cells assessed as decrease in cell viability at up to 10 uM by MTT assay; format: cell-based
[20] = Metal chelating activity assessed as compound-Cu2+ complex formation at ratio of 0.5:1 by pyrocatechol violet assay; conditions: dose 3.0 mM
[21] = Metal chelating activity assessed as compound-Zn2+ complex formation at 3 mM in presence of ZnCl2 by UV-Vis spectra analysis
[22] = Metal chelating activity assessed as compound-Cu2+ complex formation at ratio of 5:1 by pyrocatechol violet assay; conditions: dose 3.0 mM
[23] = Metal chelating activity assessed as compound-Fe2+ complex formation at 3 mM in presence of FeCl2 by UV-Vis spectra analysis
HT-22 [24] = experiment: Neuroprotective activity against glutamate induced neuronal death in mouse HT-22 cells assessed as increase in cell viability at 1 to 25 uM by MTT assay; format: functional, cell-based; conditions: dose 1-25 µM
[25] = Metal chelating activity assessed as compound-Cu2+ complex formation at ratio of 2:1 by pyrocatechol violet assay; conditions: dose 3.0 mM
[26] = Metal chelating activity assessed as compound-Cu2+ complex formation at ratio of 1:1 by pyrocatechol violet assay; conditions: dose 3.0 mM
[27] = Metal chelating activity assessed as compound-Cu2+ complex formation at 3 mM in presence of CuSO4 by UV-Vis spectra analysis
HT-22 [28] = experiment: Neuroprotective activity against glutamate induced neuronal death in mouse HT-22 cells assessed as increase in cell viability by MTT assay; format: functional, cell-based; conditions: dose 1-25 µM
[29] = Antioxidant activity assessed as free radical scavenging activity incubated for 30 mins under dark condition by DPPH assay; format: functional

Structure (SMILES)	inhibition [2] [%]	Ratio IC50 (Acetylcholinesterase [3])	Ratio IC50 (Cholinesterase [4])	Papp [5] [×10⁻⁶ cm/s]	Ratio IC50 (Acetylcholinesterase [6])	IC50 (Acetylcholinesterase [7]) [nM]	inhibition [8] [%]	Ratio IC50 (Cholinesterase [9])	LC50 at 72 h [10] [nM]	inhibition (Beta-secretase 1 [11])	Ratio IC50 (Cholinesterase [12])	solubility kinetic at 2 h [13] [µg/mL]	Activity [15]	IC50 (Cholinesterase [16]) [nM]	Activity [17]	other results
O=c1c(O)c(-c2ccc(O)c(O)c2)oc2cc(O)cc(O)c12	–	–	–	–	–	–	–	–	–	–	–	–	–	–	–	Activity (HT-22 [1]): Active
COc1cc(CNC(=O)CCCCCCCCNc2c3c(nc4cc(Cl)ccc24)CC2C=C(C)CC3C2)ccn1 (configuration not stated)	41.6	< 9	7	8.2	< 65	1.25	29.4	79	7100	26.5%	2	5.1 (≈ 9.09 µM)	inactive	88.5	Non-Toxic	mortality at 24 h, 100 µM [14]: 75%
CC1=CC2Cc3nc4cc(Cl)ccc4c(NCCCCCCCCCNS(=O)(=O)c4cn[nH]c4)c3C(C1)C2 (configuration not stated)	55.5	< 9	7	6.3	< 65	2.4	35.3	79	> 100000	–	2	5.7 (≈ 10.2 µM)	inactive	50.3	–	IC50 (Beta-secretase 1 [18]): 10800 nM; Activity [19]: Toxic; Activity [20]: Active; Activity [21]: Active; Activity [22]: Active; Activity [23]: Active; Activity (HT-22 [24]): inactive; Activity [25]: Active; Activity [26]: Active; Activity [27]: Active
O=C(O)CN(CCN(CC(=O)O)CC(=O)O)CC(=O)O	–	–	–	–	–	–	–	–	–	–	–	–	–	–	–	Activity [20]: Active; Activity [22]: Active; Activity [23]: Active; Activity [25]: Active; Activity [26]: Active
CC1=CC2Cc3nc4cc(Cl)ccc4c(NCCCCCCCCC(=O)Nc4cn[nH]c4)c3C(C1)C2 (configuration not stated)	45.3	< 9	7	5.9	< 65	2.39	32.6	79	69100	16.2%	2	9.3 (≈ 18.4 µM)	–	64	Non-Toxic	Activity [20]: Active; Activity [21]: Active; Activity [22]: Active; Activity [23]: Active; Activity (HT-22 [28]): Dose-Dependent Effect; EC50 [29]: 19600 nM; Activity [25]: Active; Activity [26]: Active; Activity [27]: Active
CC1=CC2Cc3nc4cc(Cl)ccc4c(NCCCCCCCCC(=O)NCc4cc[nH]c(=O)c4)c3C(C1)C2 (configuration not stated)	20.9	< 9	7	4.4	< 65	0.63	19.9	79	> 100000	inactive	2	13.8 (≈ 25.2 µM)	–	75.8	Non-Toxic	EC50 [29]: 90600 nM
CC1=CC2Cc3nc4cc(Cl)ccc4c(NCCCCCCCCCNC(=O)c4cc(O)c5c(c4)C(=O)c4cccc(O)c4C5=O)c3C(C1)C2 (configuration not stated)	29.6	–	–	–	–	–	47.9	–	–	–	–	–	–	–	–	Kinetic_solubility ([13]; 2 h): 19.7 uM and 14.8 ug ml-1
CC1=CC2Cc3nc4cc(Cl)ccc4c(NCCCCCCCCCNC(=O)c4ccc[nH]c4=O)c3C(C1)C2 (configuration not stated)	48.5	< 9	7	6.7	< 65	1.82	42.3	79	57800	6.92%	2	7.7 (≈ 14.1 µM)	inactive	31.9	Non-Toxic	Activity [21]: Active; Activity (HT-22 [24]): inactive; Activity [27]: Active
CC[N+](C)(CC)CCC[n+]1c(-c2ccccc2)c2cc(N)ccc2c2ccc(N)cc21	–	–	–	–	–	–	39.2	–	–	–	–	–	–	–	–	–
CC1=CC2Cc3nc4cc(Cl)ccc4c(NCCCCCCCCC(=O)N4CCNC(=O)C4)c3C(C1)C2 (configuration not stated)	15	< 9	7	4.9	< 65	0.41	9.7	79	> 100000	inactive	2	43.3 (≈ 82.8 µM)	inactive	74.8	Non-Toxic	–
CC1=CC2Cc3nc4cc(Cl)ccc4c(N)c3C(C1)C2 (racemic) [HUPRINE Y]	–	–	–	–	–	–	–	–	20900	–	–	–	–	–	–	–
O=C1O[C@H]([C@@H](O)CO)C(O)=C1O [ASCORBIC ACID]	–	–	–	–	–	–	–	–	–	–	–	–	–	–	–	EC50 [29]: 11800 nM
